Data taken from patent US9828339B2, “Biphenyl derivatives and methods for preparing same” (DONG-A ST CO., LTD, priority 2013, dated 2017).

These compounds were tested against human muscarinic M3 receptor (Homo sapiens (Human), UniProt P20309) (assay: Binding assay on human muscarinic M3 receptor ([3H]-methyl scopolamine displacement)). Conditions: membranes overexpressing human M3 receptor, Ki from IC50 by Cheng-Prusoff, read-out: Binding Affinity to M3 Receptor, Ki.
Sequence of human muscarinic M3 receptor (P20309 whole entry): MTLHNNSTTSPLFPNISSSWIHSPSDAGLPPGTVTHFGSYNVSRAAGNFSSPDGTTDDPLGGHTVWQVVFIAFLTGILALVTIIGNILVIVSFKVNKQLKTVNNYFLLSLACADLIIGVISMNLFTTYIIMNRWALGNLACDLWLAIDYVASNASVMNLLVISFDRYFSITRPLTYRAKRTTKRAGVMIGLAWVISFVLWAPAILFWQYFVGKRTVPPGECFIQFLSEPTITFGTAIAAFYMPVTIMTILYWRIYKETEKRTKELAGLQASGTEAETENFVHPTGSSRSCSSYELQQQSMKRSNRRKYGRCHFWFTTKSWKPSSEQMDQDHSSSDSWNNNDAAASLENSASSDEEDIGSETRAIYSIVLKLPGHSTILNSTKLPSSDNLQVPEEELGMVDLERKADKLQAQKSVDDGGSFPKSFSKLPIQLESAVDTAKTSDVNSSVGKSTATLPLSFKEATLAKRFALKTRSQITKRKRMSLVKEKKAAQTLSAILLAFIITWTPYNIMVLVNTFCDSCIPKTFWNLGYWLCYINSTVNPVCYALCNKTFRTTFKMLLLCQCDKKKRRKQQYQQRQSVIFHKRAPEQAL
Experimental: [Experimental Example 1] Binding Assay on Human Muscarinic M3 Receptor
Cell membrane proteins (Perkin Elmer) wherein human muscarinic M3 receptor was overexpressed, [^3H]-methyl scopolamine and test compounds in various concentration were cultured in 0.2 ml of Tris-HCl buffer at 25° C. for 120 minutes. The same was filtered under suction through glass fiber filter (Whatman GF/B), and then the filter was washed 5 times with 1 ml of Tris-HCl buffer. The radioactivity of [^3H]-methyl scopolamine adsorbed on the filter was measured by a liquid scintillation counter. Non-specific binding was evaluated under existence of 5 μM of atropine. Affinity of the compound of the present invention to muscarinic M3 receptor was calculated as the dissociation constant (Ki), which can be calculated from concentration (IC50) of test compounds inhibiting 50% of binding of [^3H]-methyl scopolamine (i.e. labeled ligand) according to Cheng and Prusoff [Cheng and Prusoff, Biochem. Pharmacol., 22, 3099, 1973].
With `O=C(Nc1ccccc1-c1ccc(F)cc1)OCC1CCCN1` (stereo in doubt) [Example 88, (S)-pyrrolidin-2-ylmethyl (4′-fluoro-[1,1′-biphenyl]-2-yl)carbamate] the Ki was 99.7 nM. For `COc1ccc(-c2ccccc2NC(=O)OCCC2CCCN2C)cc1` (centres unmarked) [Example 5, 2-(1-methylpyrrolidin-2-yl)ethyl(4′-methoxy-[1,1′-biphenyl]-2-yl)carbamate], the Ki was 1100 nM. Compound `CN1CCCC1CCOC(=O)Nc1ccccc1-c1ccc(Cl)cc1` (centres unmarked) [Example 7, 2-(1-methylpyrrolidin-2-yl)ethyl(4′-chloro-[1,1′-biphenyl]-2-yl)carbamate] has a Ki of 31.8 nM. Compound `CN1CCCC1CCOC(=O)Nc1ccccc1-c1ccc(OC(F)(F)F)cc1` (centres unmarked) [Example 10, 2-(1-methylpyrrolidin-2-yl)ethyl(4′-trifluoromethoxy-[1,1′-biphenyl]-2-yl)carbamate] has a Ki of 401 nM. `CN1CCCC1CCOC(=O)Nc1ccccc1-c1ccc([N+](=O)[O-])cc1` (centres unmarked) [Example 11, 2-(1-methylpyrrolidin-2-yl)ethyl(4′-nitro-[1,1′-biphenyl]-2-yl)carbamate] showed a Ki of 467 nM. With `CN1CCCC1CCOC(=O)Nc1ccccc1-c1cccc(C(F)(F)F)c1` (centres unmarked) [Example 12, 2-(1-methylpyrrolidin-2-yl)ethyl(3′-trifluoromethyl-[1,1′-biphenyl]-2-yl)carbamate] the Ki was 88 nM. `CN1CCCC1CCOC(=O)Nc1ccccc1-c1ccc(C(F)(F)F)cc1` (centres unmarked) [Example 13, 2-(1-methylpyrrolidin-2-yl)ethyl(4′-trifluoromethyl-[1,1′-biphenyl]-2-yl)carbamate] was tested, and the Ki was 80.1 nM. `Cc1ccc(-c2ccccc2NC(=O)OCCC2CCCN2C)cc1F` (centres unmarked) [Example 14, 2-(1-methylpyrrolidin-2-yl)ethyl((3′-fluoro-4′-methyl)-[1,1′-biphenyl]-2-yl)carbamate] was tested, and the Ki was 12.4 nM. `CCOc1cccc(-c2ccccc2NC(=O)OCCC2CCCN2C)c1` (centres unmarked) [Example 16, 2-(1-methylpyrrolidin-2-yl)ethyl(3′-ethoxy-[1,1′-biphenyl]-2-yl)carbamate] gave a Ki of 1060 nM. `CN1CCCC1CCOC(=O)Nc1ccc(F)cc1-c1cccc(F)c1` (centres unmarked) [Example 18, 2-(1-methylpyrrolidin-2-yl)ethyl(3′,5-difluoro-[1,1′-biphenyl]-2-yl)carbamate] gave a Ki of 6.98 nM. `CN1CCCC1CCOC(=O)Nc1ccc(F)cc1-c1cc(F)cc(F)c1` (centres unmarked) [Example 20, 2-(1-methylpyrrolidin-2-yl)ethyl(3′,5,5′-trifluoro-[1,1′-biphenyl]-2-yl)carbamate] gave a Ki of 20.7 nM. Compound `CN1CCCC1CCOC(=O)Nc1cc(F)ccc1-c1ccccc1` (centres unmarked) [Example 23, 2-(1-methylpyrrolidin-2-yl)ethyl(4-fluoro-[1,1′-biphenyl]-2-yl)carbamate] has a Ki of 6.4 nM. `CN1CCCC1CCOC(=O)Nc1cc(F)ccc1-c1cccc(F)c1` (centres unmarked) [Example 24, 2-(1-methylpyrrolidin-2-yl)ethyl(3′,4-difluoro-[1,1′-biphenyl]-2-yl)carbamate] showed a Ki of 31 nM. In the case of `COc1ccc(-c2ccccc2)c(NC(=O)OCCC2CCCN2C)c1` (centres unmarked) [Example 25, 2-(1-methylpyrrolidin-2-yl)ethyl(4-methoxy-[1,1′-biphenyl]-2-yl)carbamate], the Ki is reported as 115 nM. `Cc1ccc(NC(=O)OCCC2CCCN2C)c(-c2cccc(F)c2)c1` (centres unmarked) [Example 27, 2-(1-methylpyrrolidin-2-yl)ethyl(3′-fluoro-5-methyl-[1,1′-biphenyl]-2-yl)carbamate] gave a Ki of 56.7 nM. In the case of `CN1CCCC1CCOC(=O)Nc1ccccc1-c1ccc(C#N)cc1` (centres unmarked) [Example 28, 2-(1-methylpyrrolidin-2-yl)ethyl(4′-cyano-[1,1′-biphenyl]-2-yl)carbamate], the Ki is reported as 845 nM. With `CN1CCCC1CCOC(=O)Nc1ccccc1-c1cccc(CCCO)c1` (centres unmarked) [Example 29, 2-(1-methylpyrrolidin-2-yl)ethyl(3′-(3-hydroxypropyl)-[1,1′-biphenyl]-2-yl)carbamate] the Ki was 931 nM. In the case of `CN(C)c1ccc(-c2ccccc2NC(=O)OCCC2CCCN2C)cc1` (centres unmarked) [Example 30, 2-(1-methylpyrrolidin-2-yl)ethyl(4′-(dimethylamino)-[1,1′-biphenyl]-2-yl)carbamate], the Ki is reported as 830 nM. Work on `CN1CCCC1CCOC(=O)Nc1ccccc1-c1ccc(C(C)(C)C)cc1` (centres unmarked) [Example 31, 2-(1-methylpyrrolidin-2-yl)ethyl(4′-(tert-butyl)-[1,1′-biphenyl]-2-yl)carbamate] yielded a Ki of 311 nM. In the case of `CN1CCCC1CCOC(=O)Nc1ccccc1-c1ccccc1N` (centres unmarked) [Example 32, 2-(1-methylpyrrolidin-2-yl)ethyl(2′-amino-[1,1′-biphenyl]-2-yl)carbamate], the Ki is reported as greater than 1000 nM. With `CN1CCCC1CCOC(=O)Nc1ccccc1-c1cccc(N)c1` (centres unmarked) [Example 33, 2-(1-methylpyrrolidin-2-yl)ethyl(3′-amino-[1,1′-biphenyl]-2-yl)carbamate] the Ki was 16.8 nM. Compound `CN1CCCC1CCOC(=O)Nc1ccccc1-c1ccccc1Cl` (centres unmarked) [Example 35, 2-(1-methylpyrrolidin-2-yl)ethyl(2′-chloro-[1,1′-biphenyl]-2-yl)carbamate] has a Ki of 435 nM. Compound `CN1CCCC1CCOC(=O)Nc1ccccc1-c1ccccc1O` (centres unmarked) [Example 36, 2-(1-methylpyrrolidin-2-yl)ethyl(2′-hydroxy-[1,1′-biphenyl]-2-yl)carbamate] has a Ki greater than 1000 nM. `Cc1cc(-c2ccccc2NC(=O)OCCC2CCCN2C)cc(C(C)(C)C)c1` (centres unmarked) [Example 37, 2-(1-methylpyrrolidin-2-yl)ethyl(3′-tert-butyl-5′-methyl-[1,1′-biphenyl]-2-yl)carbamate] was tested, and the Ki was greater than 1000 nM. `CN1CCCC1CCOC(=O)Nc1ccccc1-c1ccc(F)c(C(F)(F)F)c1` (centres unmarked) [Example 38, 2-(1-methylpyrrolidin-2-yl)ethyl(4′-fluoro-3′-(trifluoromethyl)-[1,1′-biphenyl]-2-yl)carbamate] showed a Ki of 574 nM. `CN1CCCC1CCOC(=O)Nc1ccccc1-c1ccc(N)c(Cl)c1` (centres unmarked) [Example 39, 2-(1-methylpyrrolidin-2-yl)ethyl(4′-amino-3′-chloro-[1,1′-biphenyl]-2-yl)carbamate] was tested, and the Ki was 28 nM. `CN1CCCC1CCOC(=O)Nc1ccccc1-c1cccc(O)c1` (centres unmarked) [Example 40, 2-(1-methylpyrrolidin-2-yl)ethyl(3′-hydroxy-[1,1′-biphenyl]-2-yl)carbamate] was tested, and the Ki was 119 nM. `CCc1cccc(-c2cc(F)ccc2NC(=O)OCCC2CCCN2C)c1` (centres unmarked) [Example 44, 2-(1-methylpyrrolidin-2-yl)ethyl(3′-ethyl-5-fluoro-[1,1′-biphenyl]-2-yl)carbamate] gave a Ki of 95.5 nM. With `Cc1cc(C)cc(-c2cc(F)ccc2NC(=O)OCCC2CCCN2C)c1` (centres unmarked) [Example 45, 2-(1-methylpyrrolidin-2-yl)ethyl(5-fluoro-3′,5′-dimethyl-[1,1′-biphenyl]-2-yl)carbamate] the Ki was 69.6 nM. In the case of `CN1CCCC1CCOC(=O)Nc1ccc(F)cc1-c1cccc(N)c1` (centres unmarked) [Example 46, 2-(1-methylpyrrolidin-2-yl)ethyl(3′-amino-5-fluoro-[1,1′-biphenyl]-2-yl)carbamate], the Ki is reported as 37.5 nM. `CN1CCCC1CCOC(=O)Nc1ccc(C(F)(F)F)cc1-c1ccccc1` (centres unmarked) [Example 47, 2-(1-Methylpyrrolidin-2-yl)ethyl(5-(trifluoromethyl)-[1,1′-biphenyl]-2-yl)carbamate] gave a Ki of 136 nM. Work on `CN1CCCC1CCOC(=O)Nc1ccc(C(F)(F)F)cc1-c1ccc(F)cc1` (centres unmarked) [Example 48, 2-(1-Methylpyrrolidin-2-yl)ethyl(4′-fluoro-5-(trifluoromethyl)-[1,1′-biphenyl]-2-yl)carbamate] yielded a Ki of 258 nM. `CN1CCCC1CCOC(=O)Nc1ccc(C(F)(F)F)cc1-c1cccc(F)c1` (centres unmarked) [Example 49, 2-(1-Methylpyrrolidin-2-yl)ethyl(3′-fluoro-5-(trifluoromethyl)-[1,1′-biphenyl]-2-yl)carbamate] was tested, and the Ki was 303 nM. Work on `CN1CCCC1CCOC(=O)Nc1ccc(C(F)(F)F)cc1-c1cc(F)cc(F)c1` (centres unmarked) [Example 50, 2-(1-Methylpyrrolidin-2-yl)ethyl (3′,5′-difluoro-5-(trifluoromethyl)-[1,1′-biphenyl]-2-yl)carbamate] yielded a Ki greater than 1000 nM. Compound `CN1CCCC1CCOC(=O)Nc1ccc(C(F)(F)F)cc1-c1cccc(Cl)c1` (centres unmarked) [Example 51, 2-(1-Methylpyrrolidin-2-yl)ethyl(3′-chloro-5-(trifluoromethyl)-[1,1′-biphenyl]-2-yl)carbamate] has a Ki of 101 nM. With `CN1CCCC1CCOC(=O)Nc1ccc(F)cc1-c1ccc(Cl)c(F)c1` (centres unmarked) [Example 54, 2-(1-methylpyrrolidin-2-yl)ethyl(4′-chloro-3′,5-difluoro-[1,1′-biphenyl]-2-yl)carbamate] the Ki was 126 nM. `CN1CCCC1CCOC(=O)Nc1ccc(F)cc1-c1cc(Cl)cc(Cl)c1` (centres unmarked) [Example 55, 2-(1-methylpyrrolidin-2-yl)ethyl(3′,5′-dichloro-5-fluoro-[1,1′-biphenyl]-2-yl)carbamate] gave a Ki of 38.8 nM. Work on `CN1CCCC1CCOC(=O)Nc1ccc(F)cc1-c1cc(O)cc(Cl)c1` (centres unmarked) [Example 57, 2-(1-methylpyrrolidin-2-yl)ethyl(3′-chloro-5-fluoro-5′-hydroxy-[1,1′-biphenyl]-2-yl)carbamate] yielded a Ki of 34.8 nM. Compound `COc1ccc(NC(=O)OCCC2CCCN2C)c(-c2ccccc2)c1` (centres unmarked) [Example 60, 2-(1-methylpyrrolidin-2-yl)ethyl(5-methoxy-[1,1′-biphenyl]-2-yl)carbamate] has a Ki of 119 nM. `COc1ccc(NC(=O)OCCC2CCCN2C)c(-c2cccc(F)c2)c1` (centres unmarked) [Example 61, 2-(1-methylpyrrolidin-2-yl)ethyl(3′-fluoro-5-methoxy-[1,1′-biphenyl]-2-yl)carbamate] was tested, and the Ki was 218 nM. For `COc1ccc(NC(=O)OCCC2CCCN2C)c(-c2cc(F)cc(F)c2)c1` (centres unmarked) [Example 62, 2-(1-Methylpyrrolidin-2-yl)ethyl(3′,5′-difluoro-5-methoxy-[1,1′-biphenyl]-2-yl)carbamate], the Ki was greater than 1000 nM.
